Results reported in patent publication US4698336A, “3-(pyrrolidinio)methyl-3-cephem derivatives” (Eisai Co., Ltd., priority 1985, dated 1987).
≈ marks a conversion by molar mass, not a printed value.

Key:
[1] = test system: Serratia marcescens ES-75; assay: Antibacterial activity (MIC), Serratia marcescens ES-75; type: cell-based; settings: ES75
[2] = test system: Staphylococcus aureus 209-P; assay: Antibacterial activity (MIC), Staphylococcus aureus 209-P; type: cell-based
[3] = test system: Escherichia coli NIHJ; assay: Antibacterial activity (MIC), Escherichia coli NIHJ; type: cell-based
[4] = test system: Staphylococcus aureus E31106; assay: Antibacterial activity (MIC), Staphylococcus aureus E31106; type: cell-based; settings: Staphylococcus aureus E31106, β Lactamase producing bacteria
[5] = test system: Citrobacter freundii EC-34; assay: Antibacterial activity (MIC), Citrobacter freundii EC-34; type: cell-based; settings: EC34; Citrobacter freundii EC-34, β Lactamase producing bacteria
[6] = Acute toxicity, LD50 (mouse, intravenous injection); settings: in vivo
Description: Acute toxicity [LD50 (mouse, intravenous injection)] of the following compounds was more than 3 g/kg.

[7] = test system: Pseudomonas maltophilia E04004; assay: Antibacterial activity (MIC), Pseudomonas maltophilia E04004; type: cell-based; settings: Stenotrophomonas maltophilia
[8] = test system: Pseudomonas aeruginosa EP-01; assay: Antibacterial activity (MIC), Pseudomonas aeruginosa EP-01; type: cell-based; settings: EP01

| SMILES | MIC [1] [µg/mL] | MIC [2] [µg/mL] | MIC [3] [µg/mL] | MIC [4] [µg/mL] | MIC [5] [µg/mL] | LD50 [6] [mg/kg] | MIC [7] [µg/mL] | MIC [8] [µg/mL] |
| --- | --- | --- | --- | --- | --- | --- | --- | --- |
| CO/N=C(\C(=O)N[C@@H]1C(=O)N2C(C(=O)[O-])=C(C[N@+]3(C)CCC[C@H]3C)CS[C@H]12)c1nsc(N)n1 [Example 3, 7β-[2-(5-Amino-1,2,4-thiadiazol-3-yl)-(Z)-2-methoxyiminoacetamido]-3-[(1S,2R)-dimethylpyrrolidinio]methyl-3-cephem-4-carboxylate] | 0.2 (≈ 0.404 µM) | 1.56 (≈ 3.15 µM) | 0.2 (≈ 0.404 µM) | 12.5 (≈ 25.2 µM) | 0.2 (≈ 0.404 µM) | > 3000 | 6.25 (≈ 12.6 µM) | 1.56 (≈ 3.15 µM) |
| CO/N=C(\C(=O)N[C@@H]1C(=O)N2C(C(=O)[O-])=C(C[N@+]3(C)CCC[C@H]3C(N)=O)CS[C@H]12)c1csc(N)n1 [Control Compound, reference compound] | 0.2 (≈ 0.382 µM) | 1.56 (≈ 2.98 µM) | 0.1 (≈ 0.191 µM) | 50 (≈ 95.5 µM) | 0.2 (≈ 0.382 µM) |  | 12.5 (≈ 23.9 µM) | 6.25 (≈ 11.9 µM) |
| CO/N=C(\C(=O)N[C@@H]1C(=O)N2C(C(=O)[O-])=C(C[N@+]3(C)CCC[C@H]3CO)CS[C@H]12)c1nsc(N)n1 [Example 1-A, 7β-[2-(5-Amino-1,2,4-thiadiazol-3-yl)-(Z)-2-methoxyiminoacetamido]-3-[(2S)-hydroxymethyl-(1S)-methylpyrrolidinio]methyl-3-cephem-4-carboxylate] | 0.1 (≈ 0.195 µM) | 1.56 (≈ 3.05 µM) | 0.025 (≈ 0.0489 µM) | 6.25 (≈ 12.2 µM) | 0.05 (≈ 0.0977 µM) | > 3000 | 6.25 (≈ 12.2 µM) | 0.8 (≈ 1.56 µM) |
| CO/N=C(\C(=O)N[C@@H]1C(=O)N2C(C(=O)[O-])=C(C[N@+]3(C)CCC[C@H]3C(N)=O)CS[C@H]12)c1nsc(N)n1 [Example 2, 7β-[2-(5-Amino-1,2,4-thiadiazol-3-yl)-(Z)-2-methoxyiminoacetamido]-3-[(2S)-carbamoyl-(1S)-methylpyrrolidinio]methyl-3-cephem-4-carboxylate] | 0.1 (≈ 0.191 µM) | 1.56 (≈ 2.97 µM) | < 0.025 | 12.5 (≈ 23.8 µM) | 0.05 (≈ 0.0953 µM) | > 3000 | 3.13 (≈ 5.97 µM) | 1.56 (≈ 2.97 µM) |
| CO/N=C(\C(=O)N[C@@H]1C(=O)N2C(C(=O)[O-])=C(C[N@@+]3(C)CCC[C@H]3CO)CS[C@H]12)c1nsc(N)n1 [Example 1-B, 7β-[2-(5-Amino-1,2,4-thiadiazol-3-yl)-(Z)-2-methoxyiminoacetamido]-3-[ (2S)-hydroxymethyl-(1R)-methylpyrrolidinio]methyl-3-cephem-4-carboxylate] | 0.1 (≈ 0.195 µM) | 1.56 (≈ 3.05 µM) | 0.1 (≈ 0.195 µM) | 12.5 (≈ 24.4 µM) | 0.1 (≈ 0.195 µM) |  | 6.25 (≈ 12.2 µM) | 1.56 (≈ 3.05 µM) |
| CO/N=C(\C(=O)N[C@@H]1C(=O)N2C(C(=O)[O-])=C(C[N@+]3(C)CCC[C@H]3CO)CS[C@H]12)c1csc(N)n1 [Example 5, 7β-[2-(2-Aminothiazol-4-yl)-(Z)-2-methoxyiminoacetoamido]-3-[(2S)-hydroxymethyl-(1S)-methylpyrrolidinio]methyl-3-cephem-4-carboxylate] | 0.1 (≈ 0.196 µM) | 0.8 (≈ 1.57 µM) | 0.05 (≈ 0.0979 µM) | 25 (≈ 49 µM) | 0.05 (≈ 0.0979 µM) | > 3000 | 12.5 (≈ 24.5 µM) | 3.13 (≈ 6.13 µM) |
